Legend:
[1] = test system: subjects with pulmonary hypertension; assay: Phase 2 safety and efficacy study in subjects with pulmonary hypertension; type: in vivo, human
Procedure: In a Phase 2 safety and efficacy study, the following doses of were investigated in subjects with pulmonary hypertension, including pulmonary arterial hypertension: 80 μg, 160 μg, 240 μg, 320 μg, 400 μg, 480 μg, and 640 μg. In this study, patients were administered a starting dose of 80 μg of the TPIP and the dose was titrated up to 640 μg according to FIG. 2.

[2] = Nonclinical safety and toxicology of TP; type: in vivo
Source text: (§1) Treprostinil palmitil (TP) is a hexadecyl ester prodrug of treprostinil (TRE). In the lung, TP is hydrolyzed by esterases to TRE and hexadecanol.

[3] = Nonclinical studies of TP: conversion, delivery, PK and PD
Source text: as §1

healthy adults = assay: Phase I single-dose safety and tolerability of TPIP in healthy adults; type: in vivo, human; conditions: single doses 112.5, 225, 450 and 675 μg
Procedure: Specifically, in a Phase I safety, tolerability, and PK study, healthy adults were administered single doses of 112.5 μg, 225 μg, 450 μg, and 675 μg of a compound of Formula (II).

rodent model of PAH = assay: Rodent model of PAH; type: in vivo; conditions: inhibition of associated adverse pathology and pathophysiology
Source text: as §1

[4] = Phase I pharmacokinetics of treprostinil after inhalation of the compound of Formula (II); type: in vivo, human; conditions: dose range of 112.5 μg to 675 μg
Procedure: The term “Cmax” means the maximum (or peak) treprostinil serum concentration measured after a compound of Formula (I) or (II), an enantiomer or diastereomer thereof, or a pharmaceutically acceptable salt thereof is administered to the lungs of a subject via a dry powder composition described herein. In addition, Cmax may be measured after a single administration of a compound of Formula (I) or (II), an enantiomer or diastereomer thereof, or a pharmaceutically acceptable salt thereof, described herein, or treprostinil Cmax may be measured at steady state. Unless stated otherwise, Cmax refers to the average treprostinil Cmax measured after a single administration among a population of subjects (e.g., a population of PH patients).
The term “AUC” means the area under the plasma concentration time curve for treprostinil, measured from time 0 to a certain time post-administration to the lungs of a subject, calculated by a combination of linear and logarithmic trapezoidal methods (Linear up/log down method). […] In addition, treprostinil AUC may be measured after a single administration or at steady state values. Unless stated otherwise, AUC refers to the average AUC measured after a single administration among a population of subjects (e.g., a population of PH patients). […]

With `CCCCCCCCCCCCCCCCOC(=O)COc1cccc2c1C[C@H]1C[C@@H](O)[C@H](CC[C@@H](O)CCCCC)[C@H]1C2` [treprostinil palmitil] the tolerability ([1]; 640 μg, highest dose administered in a clinical trial) was “well tolerated”, the tolerability ([1]; all doses, 80 μg to 640 μg) was “well tolerated” and the efficacy ([1]; higher doses) was “promising efficacy”. For the same compound, the “preclinical safety or toxicological findings” value [2] was “did not demonstrate concerning preclinical safety or toxicological findings”, the “PK and PD profile” value [3] was “prolonged PK and PD profile” and the “delivery of treprostinil to the lungs and systemic circulation” value [3] was “sustained delivery”. For the same compound, the “conversion from the prodrug to the active drug, treprostinil” value ([3]; in vitro and in vivo) was “converted from the prodrug to the active drug, treprostinil”, the safety and tolerability (healthy adults) was “safe and well-tolerated” and the “serious or severe TEAEs” value (healthy adults) was “no serious or severe TEAEs were observed”. The “efficacy in a rodent model of PAH” value (rodent model of PAH) was “efficacious” and the “pharmacokinetic (PK) profile, dose linearity” value [4] was “linear”.

Source: US20260325477A1, “METHODS OF TREATMENT USING DRY POWDER COMPOSITIONS OF TREPROSTINIL PRODRUGS” (Insmed Incorporated, priority 2024, published 2026)
